According to US11987808B2, “Method of human periferic sensory neurons differenciation from human stem cells and uses thereof” (L'OREAL, priority 2017, dated 2024):
“Also recorded” adds a separate entry of the source.

Experiments:
TRPV1 = settings: Zygmunt et al. 1999; cited from earlier work
[1] = tested on: hiPS cells derived sensory neurons (TRPV1 activity / substance P release); test: Substance P release (ELISA) from hiPSC-derived sensory neurons after treatment with TRPV1 agonists and antagonists; format: cell-based, human
Method: Substance P release measured in the supernatant of sensory neurons culture after incubating 1 h at 37° C. in the presence of ligands. CAP: capsaicin; CPZ: capsazepine; RR: ruthenium red; AEA: anandamide (10 μM); KCl: high potassium solution (70 mM).
Substance P (SP) levels were determined using a commercially available ELISA kit (Cayman), following the manufacturer's instructions. Sensory neurons were cultured in a culture vessel in 24-well culture vessels at high confluence. After 24 h, cells were rinsed with fluorimetry buffer and incubated with different concentrations of agonists of TRPV1 for 45 minutes in the same buffer. When an antagonist was used, it was applied 15 minutes before, then the solution was changed to agonist plus antagonist. Subsequently, the supernatants were collected and immediately used with the ELISA kit. All experiments were performed in triplicate and absorbance levels were measured in a microculture vessel reader.
PSNs respond to irritants, such as capsaicin, via release of neuropeptides at the epidermal end and glutamate and neuropeptides in the dorsal horn of the medulla (Basbaum et al., Cellular and molecular mechanisms of pain. Cell. 2009; 139:267-284). To verify if the sensory neurons were functional with respect to neuropeptide release, after D33 they were plated onto 24-well plates and treated 10 days with HEKn conditioned medium.

[2] = tested on: TRPV1 in hiPS cells derived sensory neurons; test: Calcium release assay (Fura-2 imaging) in hiPS cells derived sensory neurons; format: cell-based, human; settings: Fura-2 340/380 nm, capsaicin 100 nM in FIG. 5
Method: Phase contrast image for cell localization (a) fluorescence image of basal calcium levels (b). Calcium responses in sensory neurons after 100 nM capsaicin (c) and 70 mM KCL treatment (d). Calcium imaging of sensory neurons with conversion of Fura-2 excitation ratio (340/380 nm) to pseudo color, according to the scale on the left of each image. Arrows indicate active cells.
Neurons were cultured in a culture vessel onto PLO and Laminin-treated coverslips (where they were treated with HEKn conditioned medium for 10 days. On the day of the experiment, the medium was removed and cells were incubated with fresh medium (without factors) containing 5 μM Fura-2 AM (Molecular Probes) and 0.04% pluronic acid for one hour at 37° C. Then this solution was replaced with fluorimetry buffer, composed of (in mM): 145 NaCl, 5 KCl, 1.2 NaHPO4, 1.5 CaCl2, 10 D-glucose, 5 HEPES pH 7.4. If an antagonist was used, it was added to this solution at this time. After 30 minutes at 37° C., the coverslips were taken to an inverted microscope (Nikon) equipped with a CCD Camera (Orca, Hamamatsu Photonics) and Lambda DG-4 light source (Sutter Instrument). The images were acquired every 500 milliseconds via MetaFluor software (Molecular Probes) and the levels of fluorescence were represented in pseudo-color. […]

human skin fibroblasts = settings: Kim et al. 2006; cited from earlier work
[3] = tested on: cultured human epidermal keratinocytes; settings: Inoue et al. 2002; cited from earlier work

Structure (SMILES): CCCCC/C=C\C/C=C\C/C=C\C/C=C\CCCC(=O)NCCO [anandamide]
- EC50 at TRPV1 compared with CB1 (TRPV1): an order of magnitude higher
- Substance P release ([1]; anandamide 10 μM): evoked the highest substance P release; also recorded: caused a release of substance P
- Substance P release, increase compared to control ([1]; anandamide 10 μM, supernatant of sensory neurons culture after 1 h at 37° C.): 887%

Structure (SMILES): COc1cc(CNC(=O)CCCC/C=C/C(C)C)ccc1O [capsaicin]
- Calcium increases mediated by TRPV1 activation (calcium signals) [2]: modest
- Calcium increases mediated by TRPV1 activation (calcium signals) ([2]; listed as Capsaicin): activity could be detected
- Membrane current and intracellular calcium level (human skin fibroblasts): induced significant changes in the membrane current and the intracellular calcium level
- Substance P release relative to basal level ([1]; capsaicin 300 nM, neurons treated 10 days with HEKn conditioned medium): triple that amount
- Substance P release ([1]; capsaicin 3 μM): did not show increased release
- Intracellular calcium concentration [3]: produced elevations in the intracellular calcium concentration

Structure (SMILES): Oc1cc2c(cc1O)CN(C(=S)NCCc1ccc(Cl)cc1)CCC2 [capsazepine]
- Antagonism of capsaicin-induced changes (human skin fibroblasts): antagonized
- Block of capsaicin-induced substance P release ([1]; co-treatment with capsazepine 1 μM, capsaicin 300 nM): efficiently blocked
- Inhibition of capsaicin-/acidification-induced calcium increases [3]: inhibited

Structure (SMILES): [Cl-].[K+] [high potassium solution]
- Substance P release ([1]; high potassium solution 70 mM): substance P release equivalent to capsaicin 300 r1M

Structure (SMILES): N.N.N.N.N.N.N.N.N.N.N.N.N.N.[Cl-].[Cl-].[Cl-].[Cl-].[Cl-].[Cl-].[O-2].[O-2].[Ru+3].[Ru+3].[Ru+4] [ruthenium red]
- Substance P release relative to basal levels ([1]; pre-incubation with ruthenium red 10 μM followed by capsaicin 3 μM): seemed to decrease substance P release below basal levels
